Assay results reported in patent US9963442B2, “Pyridones as herbicides” (E I DU PONT DE NEMOURS AND COMPANY, priority 2014, dated 2018).

Columns and labels:
Assay type in all cases: in vivo
[1] = tested on: Italian ryegrass (Lolium multiflorum); experiment: Test A preemergence, directed soil spray; settings: approx. 10 days
Text: (§1) Seeds of plant species selected from barnyardgrass (Echinochloa crus-galli), kochia (Kochia scoparia), ragweed (common ragweed, Ambrosia elatior), Italian ryegrass (Lolium multiflorum), giant foxtail (Setaria faberii), and pigweed (Amaranthus retroflexus) were planted into a blend of loam soil and sand and treated preemergence with a directed soil spray using test chemicals formulated in a non-phytotoxic solvent mixture which included a surfactant. At the same time, plants selected from these weed species and also wheat (Triticum aestivum), corn (Zea mays), blackgrass (Alopecurus myosuroides), and galium (catchweed bedstraw, Galium aparine) were planted in pots containing the same blend of loam soil and sand and treated with postemergence applications of test chemicals formulated in the same manner. Plants ranged in height from 2 to 10 cm and were in the one- to two-leaf stage for the postemergence treatment. Treated plants and untreated controls were maintained in a greenhouse for approximately 10 days, after which time all treated plants were compared to untreated controls and visually evaluated for injury. Plant response ratings, summarized in Table A, are based on a 0 to 100 scale where 0 is no effect and 100 is complete control. A dash (-) response means no test result.

[2] = tested on: barnyardgrass (Echinochloa crus-galli); experiment: Test A preemergence, directed soil spray; settings: approx. 10 days
Text: as §1

[3] = tested on: giant foxtail (Setaria faberii); experiment: Test A preemergence, directed soil spray; settings: approx. 10 days
Text: as §1

[4] = tested on: kochia (Kochia scoparia); experiment: Test A preemergence, directed soil spray; settings: approx. 10 days
Text: as §1

[5] = tested on: pigweed (Amaranthus retroflexus); experiment: Test A preemergence, directed soil spray; settings: approx. 10 days
Text: as §1

[6] = tested on: ragweed (common ragweed, Ambrosia elatior); experiment: Test A preemergence, directed soil spray; settings: approx. 10 days
Text: as §1

[7] = tested on: Italian ryegrass (Lolium multiflorum); experiment: Test A postemergence application; settings: approx. 10 days
Text: as §1

[8] = tested on: barnyardgrass (Echinochloa crus-galli); experiment: Test A postemergence application; settings: approx. 10 days
Text: as §1

[9] = tested on: blackgrass (Alopecurus myosuroides); experiment: Test A postemergence application; settings: approx. 10 days
Text: as §1

[10] = tested on: corn (Zea mays); experiment: Test A postemergence application; settings: approx. 10 days
Text: as §1

[11] = tested on: galium (catchweed bedstraw, Galium aparine); experiment: Test A postemergence application; settings: approx. 10 days
Text: as §1

[12] = tested on: giant foxtail (Setaria faberii); experiment: Test A postemergence application; settings: approx. 10 days
Text: as §1

[13] = tested on: kochia (Kochia scoparia); experiment: Test A postemergence application; settings: approx. 10 days
Text: as §1

[14] = tested on: pigweed (Amaranthus retroflexus); experiment: Test A postemergence application; settings: approx. 10 days
Text: as §1

[15] = tested on: ragweed (common ragweed, Ambrosia elatior); experiment: Test A postemergence application; settings: approx. 10 days
Text: as §1

[16] = tested on: wheat (Triticum aestivum); experiment: Test A postemergence application; settings: approx. 10 days
Text: as §1

[17] = tested on: barnyardgrass (Echinochloa crus-galli); experiment: Test B flooded paddy test; parameters: key: 0 = no effect, 100 = complete control; settings: Flood, 250 g ai/ha applied to paddy water at 2-leaf stage; visually evaluated after 13 to 15 days; scale 0 (no effect) to 100 (complete control)
Procedure: (§2) Plant species in the flooded paddy test selected from rice (Oryza sativa), sedge, umbrella (small-flower umbrella sedge, Cyperus difformis), ducksalad (Heteranthera limosa), and barnyardgrass (Echinochloa crus-galli) were grown to the 2-leaf stage for testing. At time of treatment, test pots were flooded to 3 cm above the soil surface, treated by application of test compounds directly to the paddy water, and then maintained at that water depth for the duration of the test. Treated plants and controls were maintained in a greenhouse for 13 to 15 days, after which time all species were compared to controls and visually evaluated. Plant response ratings, summarized in Table B, are based on a scale of 0 to 100 where 0 is no effect and 100 is complete control. A dash (-) response means no test result.

[18] = tested on: ducksalad (Heteranthera limosa); experiment: Test B flooded paddy test; parameters: key: 0 = no effect, 100 = complete control; settings: Flood, 250 g ai/ha applied to paddy water at 2-leaf stage; visually evaluated after 13 to 15 days; scale 0 (no effect) to 100 (complete control)
Procedure: as §2

[19] = tested on: rice (Oryza sativa); experiment: Test B flooded paddy test; parameters: key: 0 = no effect, 100 = complete control; settings: Flood, 250 g ai/ha applied to paddy water at 2-leaf stage; visually evaluated after 13 to 15 days; scale 0 (no effect) to 100 (complete control)
Procedure: as §2

[20] = tested on: sedge, umbrella (small-flower umbrella sedge, Cyperus difformis); experiment: Test B flooded paddy test; parameters: key: 0 = no effect, 100 = complete control; settings: Flood, 250 g ai/ha applied to paddy water at 2-leaf stage; visually evaluated after 13 to 15 days; scale 0 (no effect) to 100 (complete control)
Procedure: as §2

O=c1cccc(Oc2ncc(Cl)cn2)n1-c1cccc(C(F)(F)F)c1 [Compound 2, 6-[(5-chloro-2-pyrimidinyl)oxy]-1-[3-(trifluoromethyl)phenyl]-2(1H)-pyridinone]
Plant response rating (0 to 100 scale, 0 no effect, 100 complete control), Ryegrass, Italian ([1]; 125 g ai/ha): 0
Plant response rating (0 to 100 scale, 0 no effect, 100 complete control), Ryegrass, Italian ([1]; 500 g ai/ha): 0
Plant response rating (0 to 100 scale, 0 no effect, 100 complete control), Barnyardgrass ([2]; 125 g ai/ha): 0
Plant response rating (0 to 100 scale, 0 no effect, 100 complete control), Barnyardgrass ([2]; 500 g ai/ha): 0
Plant response rating (0 to 100 scale, 0 no effect, 100 complete control), Foxtail, Giant ([3]; 125 g ai/ha): 0
Plant response rating (0 to 100 scale, 0 no effect, 100 complete control), Foxtail, Giant ([3]; 500 g ai/ha): 90
Plant response rating (0 to 100 scale, 0 no effect, 100 complete control), Kochia ([4]; 125 g ai/ha): 0
Plant response rating (0 to 100 scale, 0 no effect, 100 complete control), Kochia ([4]; 500 g ai/ha): 30
Plant response rating (0 to 100 scale, 0 no effect, 100 complete control), Pigweed ([5]; 125 g ai/ha): 0
Plant response rating (0 to 100 scale, 0 no effect, 100 complete control), Pigweed ([5]; 500 g ai/ha): 20
Plant response rating (0 to 100 scale, 0 no effect, 100 complete control), Ragweed ([6]; 125 g ai/ha): 0
Plant response rating (0 to 100 scale, 0 no effect, 100 complete control), Ragweed ([6]; 500 g ai/ha): 0
Plant response rating (0 to 100 scale, 0 no effect, 100 complete control), Ryegrass, Italian ([7]; 125 g ai/ha): 0
Plant response rating (0 to 100 scale, 0 no effect, 100 complete control), Ryegrass, Italian ([7]; 500 g ai/ha): 0
Plant response rating (0 to 100 scale, 0 no effect, 100 complete control), Barnyardgrass ([8]; 125 g ai/ha): 0
Plant response rating (0 to 100 scale, 0 no effect, 100 complete control), Barnyardgrass ([8]; 500 g ai/ha): 0
Plant response rating (0 to 100 scale, 0 no effect, 100 complete control), Blackgrass ([9]; 125 g ai/ha): 0
Plant response rating (0 to 100 scale, 0 no effect, 100 complete control), Blackgrass ([9]; 500 g ai/ha): 0
Plant response rating (0 to 100 scale, 0 no effect, 100 complete control), Corn ([10]; 125 g ai/ha): 0
Plant response rating (0 to 100 scale, 0 no effect, 100 complete control), Corn ([10]; 500 g ai/ha): 20
Plant response rating (0 to 100 scale, 0 no effect, 100 complete control), Galium ([11]; 125 g ai/ha): 20
Plant response rating (0 to 100 scale, 0 no effect, 100 complete control), Galium ([11]; 500 g ai/ha): 60
Plant response rating (0 to 100 scale, 0 no effect, 100 complete control), Foxtail, Giant ([12]; 125 g ai/ha): 0
Plant response rating (0 to 100 scale, 0 no effect, 100 complete control), Foxtail, Giant ([12]; 500 g ai/ha): 60
Plant response rating (0 to 100 scale, 0 no effect, 100 complete control), Kochia ([13]; 125 g ai/ha): 30
Plant response rating (0 to 100 scale, 0 no effect, 100 complete control), Kochia ([13]; 500 g ai/ha): 90
Plant response rating (0 to 100 scale, 0 no effect, 100 complete control), Pigweed ([14]; 125 g ai/ha): 30
Plant response rating (0 to 100 scale, 0 no effect, 100 complete control), Pigweed ([14]; 500 g ai/ha): 80
Plant response rating (0 to 100 scale, 0 no effect, 100 complete control), Ragweed ([15]; 125 g ai/ha): 0
Plant response rating (0 to 100 scale, 0 no effect, 100 complete control), Ragweed ([15]; 500 g ai/ha): 0
Plant response rating (0 to 100 scale, 0 no effect, 100 complete control), Wheat ([16]; 125 g ai/ha): 0
Plant response rating (0 to 100 scale, 0 no effect, 100 complete control), Wheat ([16]; 500 g ai/ha): 20
Plant response rating, Barnyardgrass [17]: 0
Plant response rating, Ducksalad [18]: 0
Plant response rating, Rice [19]: 0
Plant response rating, Sedge, Umbrella [20]: 0
